These results are taken from ChEMBL document CHEMBL2203039, “Azabenzthiazole inhibitors of leukotriene A₄ hydrolase” (Bioorg Med Chem Lett, 2012).

A value given as a limit tells only on which side of the number the result lay.

The target of the test is Voltage-gated inwardly rectifying potassium channel KCNH2 (Homo sapiens, UniProt Q12809). Put plainly: Inhibition of dofetilide binding to human ERG by radioligand binding assay.
Sequence of Voltage-gated inwardly rectifying potassium channel KCNH2 (Q12809 whole entry): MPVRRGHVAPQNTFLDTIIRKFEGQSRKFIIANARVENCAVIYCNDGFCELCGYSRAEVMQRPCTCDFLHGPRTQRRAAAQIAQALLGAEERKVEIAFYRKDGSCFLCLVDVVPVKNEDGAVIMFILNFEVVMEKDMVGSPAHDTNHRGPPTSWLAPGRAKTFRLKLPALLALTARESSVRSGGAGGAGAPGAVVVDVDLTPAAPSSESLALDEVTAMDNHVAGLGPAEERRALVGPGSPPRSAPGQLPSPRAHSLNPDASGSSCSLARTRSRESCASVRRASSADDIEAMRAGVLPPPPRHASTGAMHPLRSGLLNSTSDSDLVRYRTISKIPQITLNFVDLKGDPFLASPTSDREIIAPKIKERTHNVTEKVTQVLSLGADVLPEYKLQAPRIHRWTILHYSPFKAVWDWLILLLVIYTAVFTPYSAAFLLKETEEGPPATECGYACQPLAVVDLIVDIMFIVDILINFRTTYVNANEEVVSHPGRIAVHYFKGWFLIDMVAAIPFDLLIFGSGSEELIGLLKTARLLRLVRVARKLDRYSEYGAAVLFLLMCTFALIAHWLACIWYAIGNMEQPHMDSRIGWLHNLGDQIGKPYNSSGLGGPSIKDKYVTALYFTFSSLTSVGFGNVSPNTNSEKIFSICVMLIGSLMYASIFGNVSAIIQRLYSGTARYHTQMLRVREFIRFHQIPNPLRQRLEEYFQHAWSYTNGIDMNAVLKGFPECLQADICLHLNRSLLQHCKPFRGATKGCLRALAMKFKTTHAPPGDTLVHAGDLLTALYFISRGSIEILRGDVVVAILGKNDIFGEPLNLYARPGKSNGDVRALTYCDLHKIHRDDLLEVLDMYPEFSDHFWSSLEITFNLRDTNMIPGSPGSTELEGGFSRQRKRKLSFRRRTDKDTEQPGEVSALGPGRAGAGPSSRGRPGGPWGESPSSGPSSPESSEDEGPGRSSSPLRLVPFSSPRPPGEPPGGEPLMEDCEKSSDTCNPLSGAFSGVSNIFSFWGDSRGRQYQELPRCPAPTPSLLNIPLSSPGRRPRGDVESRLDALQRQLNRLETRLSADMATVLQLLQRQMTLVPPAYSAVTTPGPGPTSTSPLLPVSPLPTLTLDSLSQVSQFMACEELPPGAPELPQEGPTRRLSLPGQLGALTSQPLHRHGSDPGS

For `O=C1CCCN1C1CCN(CCc2ccc(Oc3nc4ncccc4s3)cc2)CC1`, the IC50 is greater than 10 µM.
